{"source": "patent US9988644B2", "about": "“Compounds for improved viral transduction” (bluebird bio, Inc., priority 2011, dated 2018)", "tested_on": "CD34+ cells", "assay": "Time-course and dose-response of dmPGE2 in promoting viral transduction (GFP+ lentivirus, flow cytometry)", "assay_type": "cell-based, human", "conditions": "GFP+ lentivirus MOI 25; for percentage of cells positive for GFP, Pre-Stim w/PGE2 Minus 2 Hr: 22-24 hours of culture; for percentage of cells positive for GFP, Pre-Stim w/PGE2 Minus 1 Hr: 23-24 hours of culture; for percentage of cells positive for GFP, Virus and PGE2 Plus 1 Hr: 24-25 hours of culture; for percentage of cells positive for GFP, Virus and PGE2 Plus 2 Hr: 24-26 hours of culture; for percentage of cells positive for GFP, Virus and PGE2 Plus 4 Hr: 24-28 hours of culture; for percentage of cells positive for GFP, Virus and PGE2 24 Hr: 24-48 hours of culture", "procedure": "MCD-34+ cells were thawed and pre-stimulated with SCF, TPO, FltL and IL3, then transduced with GFP+ lentivirus at a multiplicity of infection of 25. Cells were exposed to dmPGE2 during the viral transduction step (24-25 hours of culture; 24-26 hours of culture; 24-28 hours of culture; or 24-48 hours of culture) and then washed and analyzed by flow cytometry after approximately 1 week in culture. Alternatively, cells were exposed to dmPGE2 during the pre-stimulation step (22-24 hours of culture; 23-24 hours of culture).", "key": {"[1]": {"conditions": "dmPGE2 1 uM during pre-stimulation"}, "[2]": {"conditions": "dmPGE2 12.5 uM during pre-stimulation"}, "[3]": {"conditions": "dmPGE2 25 uM during pre-stimulation"}, "[4]": {"conditions": "dmPGE2 50 uM during pre-stimulation"}, "[5]": {"conditions": "dmPGE2 100 uM during pre-stimulation"}}, "data": [{"smiles": "CCCCC(C)(C)[C@H](O)/C=C/[C@H]1[C@H](O)CC(=O)[C@@H]1C/C=C\\CCCC(=O)O", "note": "[dmPGE2, 16,16-dimethyl PGE2]", "values": [{"measurement": "percentage of cells positive for GFP, Pre-Stim w/PGE2 Minus 2 Hr", "setting": "[1]", "result": 25.74, "unit": "%"}, {"measurement": "percentage of cells positive for GFP, Pre-Stim w/PGE2 Minus 1 Hr", "setting": "[1]", "result": 22.29, "unit": "%"}, {"measurement": "percentage of cells positive for GFP, Virus and PGE2 Plus 1 Hr", "setting": "dmPGE2 1 uM", "result": 2.94, "unit": "%"}, {"measurement": "percentage of cells positive for GFP, Virus and PGE2 Plus 2 Hr", "setting": "dmPGE2 1 uM", "result": 7.17, "unit": "%"}, {"measurement": "percentage of cells positive for GFP, Virus and PGE2 Plus 4 Hr", "setting": "dmPGE2 1 uM", "result": 21.10, "unit": "%"}, {"measurement": "percentage of cells positive for GFP, Virus and PGE2 24 Hr", "setting": "dmPGE2 1 uM", "result": 32.03, "unit": "%"}, {"measurement": "percentage of cells positive for GFP, Pre-Stim w/PGE2 Minus 2 Hr", "setting": "[2]", "result": 30.64, "unit": "%"}, {"measurement": "percentage of cells positive for GFP, Pre-Stim w/PGE2 Minus 1 Hr", "setting": "[2]", "result": 22.13, "unit": "%"}, {"measurement": "percentage of cells positive for GFP, Virus and PGE2 Plus 1 Hr", "setting": "dmPGE2 12.5 uM", "result": 1.97, "unit": "%"}, {"measurement": "percentage of cells positive for GFP, Virus and PGE2 Plus 2 Hr", "setting": "dmPGE2 12.5 uM", "result": 5.32, "unit": "%"}, {"measurement": "percentage of cells positive for GFP, Virus and PGE2 Plus 4 Hr", "setting": "dmPGE2 12.5 uM", "result": 28.08, "unit": "%"}, {"measurement": "percentage of cells positive for GFP, Virus and PGE2 24 Hr", "setting": "dmPGE2 12.5 uM", "result": 47.42, "unit": "%"}, {"measurement": "percentage of cells positive for GFP, Pre-Stim w/PGE2 Minus 2 Hr", "setting": "[3]", "result": 31.90, "unit": "%"}, {"measurement": "percentage of cells positive for GFP, Pre-Stim w/PGE2 Minus 1 Hr", "setting": "[3]", "result": 24.05, "unit": "%"}, {"measurement": "percentage of cells positive for GFP, Virus and PGE2 Plus 1 Hr", "setting": "dmPGE2 25 uM", "result": 1.76, "unit": "%"}, {"measurement": "percentage of cells positive for GFP, Virus and PGE2 Plus 2 Hr", "setting": "dmPGE2 25 uM", "result": 4.76, "unit": "%"}, {"measurement": "percentage of cells positive for GFP, Virus and PGE2 Plus 4 Hr", "setting": "dmPGE2 25 uM", "result": 27.46, "unit": "%"}, {"measurement": "percentage of cells positive for GFP, Virus and PGE2 24 Hr", "setting": "dmPGE2 25 uM", "result": 50.69, "unit": "%"}, {"measurement": "percentage of cells positive for GFP, Pre-Stim w/PGE2 Minus 2 Hr", "setting": "[4]", "result": 31.85, "unit": "%"}, {"measurement": "percentage of cells positive for GFP, Pre-Stim w/PGE2 Minus 1 Hr", "setting": "[4]", "result": 22.98, "unit": "%"}, {"measurement": "percentage of cells positive for GFP, Virus and PGE2 Plus 1 Hr", "setting": "dmPGE2 50 uM", "result": 1.85, "unit": "%"}, {"measurement": "percentage of cells positive for GFP, Virus and PGE2 Plus 2 Hr", "setting": "dmPGE2 50 uM", "result": 4.23, "unit": "%"}, {"measurement": "percentage of cells positive for GFP, Virus and PGE2 Plus 4 Hr", "setting": "dmPGE2 50 uM", "result": 27.45, "unit": "%"}, {"measurement": "percentage of cells positive for GFP, Virus and PGE2 24 Hr", "setting": "dmPGE2 50 uM", "result": 54.63, "unit": "%"}, {"measurement": "percentage of cells positive for GFP, Pre-Stim w/PGE2 Minus 2 Hr", "setting": "[5]", "result": 34.85, "unit": "%"}, {"measurement": "percentage of cells positive for GFP, Pre-Stim w/PGE2 Minus 1 Hr", "setting": "[5]", "result": 25.14, "unit": "%"}, {"measurement": "percentage of cells positive for GFP, Virus and PGE2 Plus 1 Hr", "setting": "dmPGE2 100 uM", "result": 2.48, "unit": "%"}, {"measurement": "percentage of cells positive for GFP, Virus and PGE2 Plus 2 Hr", "setting": "dmPGE2 100 uM", "result": 4.02, "unit": "%"}, {"measurement": "percentage of cells positive for GFP, Virus and PGE2 Plus 4 Hr", "setting": "dmPGE2 100 uM", "result": 21.57, "unit": "%"}, {"measurement": "percentage of cells positive for GFP, Virus and PGE2 24 Hr", "setting": "dmPGE2 100 uM", "result": 76.44, "unit": "%"}]}]}
